Assay results reported in patent US8431557B2, “Treatment of menopause-associated symptoms” (Besins Healthcare Luxembourg SARL, priority 2006, dated 2013).

What was measured:
[1] = test system: menopausal women; assay: Placebo-controlled study: moderate to severe symptom of vulvar and vaginal atrophy; assay type: in vivo, human (women)
Method: (§1) This study was a multi-centred, double-blind, placebo-controlled, parallel group comparison. A total of 351 subjects were enrolled at 78 sites in the United States.
(§2) A two-week, medication free, Pre-Treatment Phase was used to determine subject vasomotor symptoms. Efficacy assessments included the number and intensity of hot flushes per day, and severity of vulvar and vaginal atrophy symptoms.
(§3) The three treatment groups comprised the following dosages: • A 0.375 mg dose (1.25 g of gel @ 0.03%) applied to one arm and 0.9 g of placebo gel applied on the other arm once daily for 12 weeks; • A 0.27 mg dose (0.9 g of gel @ 0.03%) applied to one arm and 1.25 g of placebo gel applied on the other arm once daily for 12 weeks; and • 0.9 g of placebo gel applied to one arm and 1.25 g of placebo gel applied on the other arm once daily for 12 weeks.
(§4) The Treatment Phase was 12 weeks. A pre-treatment period of 2 weeks was used to initially evaluate each subject's vasomotor symptoms.
(§5) All data were analyzed using the approach of Observed Cases (OC).
(§6) For all continuous primary and secondary efficacy parameters, descriptive statistics tables and 2-way ANCOVA with fixed factors treatment and centre, and baseline value as covariate were provided. The interaction of treatment and centre was investigated using 2-way ANCOVA with fixed factors treatment, centre, and treatment-by-centre interaction with baseline value as covariate. To control the Type-I error rate, a step-down procedure using contrasts was performed to compare each treatment group to the placebo group. First, the group with the 0.375 mg dose was compared against placebo at the α=0.05 level (2-sided). If the null hypothesis was rejected, the group with the 0.27 mg dose was compared to placebo at the α=0.05 level (2-sided). Graphs were used to characterize the dose response. If the assumptions of the model were not met, then van Elteren's test with centre as the stratification variable was used in the step-down procedure. For categorical data, Fisher's exact test was used to compare treatment groups.
(§7) The study assessed the following variables: • Mean change in frequency of moderate to severe vasomotor symptoms from baseline to Week 4; • Mean change in frequency of moderate to severe vasomotor symptoms from baseline to Week 12; • Mean change in severity of moderate to severe vasomotor symptoms from baseline to Week 4; • Mean change in severity of moderate to severe vasomotor symptoms from baseline to Week 12; • Mean change in frequency of moderate-to-severe hot flushes at each week; • Mean change in severity of moderate-to-severe hot flushes at each week; • Mean change from baseline to Week 12 in the moderate to severe symptom of vulvar and vaginal atrophy that has been identified by the subject as being the most bothersome to her (vaginal pain, dryness, irritation/itching, bleeding, dysuria);
The severity of symptoms of vulvar and vaginal atrophy (vaginal pain associated with sexual activity, dryness, irritation/itching, bleeding associated with sexual activity, or dysuria) that was identified by the subject as moderate to severe and most bothersome was assessed at Week 1, Week 12, or Early Termination using the following rating scale: […]

[2] = test system: menopausal women; assay: Placebo-controlled study: severity of moderate to severe hot flushes; assay type: in vivo, human (women); design: key to Severity of Moderate to Severe Hot Flushes, Mean Change from Baseline / Severity of Moderate to Severe Hot Flushes, Mean: 0 none, 1 mild, 2 moderate, 3 severe hot flush intensity; settings: for Severity of Moderate to Severe Hot Flushes, Mean: Baseline
Method: as §1, §2, §3, §4, §5, §6, §7
Severity of moderate to severe vasomotor symptoms was defined as (2*number of moderate hot flushes+3*number of severe hot flushes)/total number of moderate and severe hot flushes.
As with frequency, if less than 10 days of data were available for the baseline period, the baseline severity was considered missing.
On a daily basis, the subject recorded the number of hot flushes and rated the intensity of each based on a four-point scale as follows: • 0 (none) • 1 (mild) Sensation of heat without perspiration • 2 (moderate) Sensation of heat with perspiration, but the subject was able to continue with their activity • 3 (severe) Sensation of heat with sweating, sufficiently severe to result in discontinuation of activity Assessment of Vulvar and Vaginal Atrophy Symptom Severity

[3] = 0.27 mg dose (N = 115), Endpoint
[4] = 0.375 mg dose (N = 114), Baseline
[5] = 0.375 mg dose (N = 114), Endpoint

Q: For `C[C@]12CC[C@@H]3c4ccc(O)cc4CC[C@H]3[C@@H]1CC[C@@H]2O` [estradiol, 17-beta estradiol], which “Symptom of Vulvar and Vaginal Atrophy, number of subjects rated Severe” value (shortened to “Symptom … number of subjects rated Severe”) [1, 3] is on record?
A: The value was 5.

Q: What about the “Symptom of Vulvar and Vaginal Atrophy, percent of subjects rated Mild” value [1, 3] of the same compound?
A: The value was “(13.0%)”.

Q: What about the “Symptom of Vulvar and Vaginal Atrophy, percent of subjects rated Moderate” value (“Symptom … percent of subjects rated Moderate” for short) [1, 3] of the same compound?
A: The value was “(8.7%)”.

Q: And the “Symptom of Vulvar and Vaginal Atrophy, percent of subjects rated None” value [1, 3]?
A: The value was “(5.2%)”.

Q: And the “Symptom of Vulvar and Vaginal Atrophy, percent of subjects rated Severe” value (shortened to “Symptom … percent of subjects rated Severe”) [1, 3]?
A: The value was “(4.3%)”.

Q: What about the “Improvement in moderate to severe symptoms of vulvar and vaginal atrophy” value ([1]; 0.375 mg dose) of the same compound?
A: The value was “statistically significant improvement”.

Q: What about the “Symptom of Vulvar and Vaginal Atrophy, number of subjects rated Moderate” value [1, 4] of the same compound?
A: Its value is 26.

Q: And the “Symptom … number of subjects rated Severe” value [1, 4]?
A: The value was 18.

Q: And the “Symptom … percent of subjects rated Moderate” value [1, 4]?
A: Its value is “(22.8%)”.

Q: And the “Symptom … percent of subjects rated Severe” value [1, 4]?
A: Its value is “(15.8%)”.

Q: And the “Symptom of Vulvar and Vaginal Atrophy, number of subjects rated Mild” value [1, 5]?
A: Its value is 17.

Q: What about the “Symptom of Vulvar and Vaginal Atrophy, number of subjects rated Moderate” value [1, 5] of the same compound?
A: The value was 9.

Q: And the “Symptom of Vulvar and Vaginal Atrophy, number of subjects rated None” value [1, 5]?
A: The value was 10.

Q: What about the “Symptom … number of subjects rated Severe” value [1, 5] of the same compound?
A: The value was 6.

Q: What about the “Symptom of Vulvar and Vaginal Atrophy, percent of subjects rated Mild” value [1, 5] of the same compound?
A: Its value is “(14.9%)”.

Q: What about the “Symptom … percent of subjects rated Moderate” value [1, 5] of the same compound?
A: The value was “(7.9%)”.

Q: And the “Symptom of Vulvar and Vaginal Atrophy, percent of subjects rated None” value [1, 5]?
A: The value was “(8.8%)”.

Q: What about the “Symptom … percent of subjects rated Severe” value [1, 5] of the same compound?
A: The value was “(5.3%)”.

Q: And the “Week at which statistical significance vs placebo was achieved, severity of moderate to severe hot flushes” value ([2]; 0.27 mg dose)?
A: The value was 8 Week.

Q: And the “Severity of Moderate to Severe Hot Flushes, Mean” value ([2]; 0.27 mg dose)?
A: The value was 2.52.

Q: What about the “Severity of Moderate to Severe Hot Flushes, Mean Change from Baseline” value (from here on “Severity of Moderate … Mean Change from Baseline”) ([2]; 0.27 mg dose, Week 1) of the same compound?
A: The value was −0.02.

Q: What about the “Severity of Moderate … Mean Change from Baseline” value ([2]; 0.27 mg dose, Week 2) of the same compound?
A: The value was −0.10.

Q: And the “Severity of Moderate … Mean Change from Baseline” value ([2]; 0.27 mg dose, Week 3)?
A: Its value is −0.21.

Q: What about the “Severity of Moderate … Mean Change from Baseline” value ([2]; 0.27 mg dose, Week 4) of the same compound?
A: The value was −0.26.

Q: And the “Severity of Moderate … Mean Change from Baseline” value ([2]; 0.27 mg dose, Week 5)?
A: The value was −0.29.

Q: And the “Severity of Moderate … Mean Change from Baseline” value ([2]; 0.27 mg dose, Week 6)?
A: The value was −0.36.

Q: And the “Severity of Moderate … Mean Change from Baseline” value ([2]; 0.27 mg dose, Week 7)?
A: The value was −0.40.

Q: What about the “Severity of Moderate … Mean Change from Baseline” value ([2]; 0.27 mg dose, Week 8) of the same compound?
A: The value was −0.46.

Q: What about the “Severity of Moderate … Mean Change from Baseline” value ([2]; 0.27 mg dose, Week 9) of the same compound?
A: The value was −0.60.

Q: And the “Severity of Moderate … Mean Change from Baseline” value ([2]; 0.27 mg dose, Week 10)?
A: Its value is −0.58.

Q: What about the “Severity of Moderate … Mean Change from Baseline” value ([2]; 0.27 mg dose, Week 11) of the same compound?
A: The value was −0.66.

Q: And the “Severity of Moderate … Mean Change from Baseline” value ([2]; 0.27 mg dose, Week 12)?
A: The value was −0.70.

Q: And the “Week at which statistical significance vs placebo was achieved, severity of moderate to severe hot flushes” value ([2]; 0.375 mg dose)?
A: Its value is 4 Week.

Q: What about the “Severity of Moderate to Severe Hot Flushes, Mean” value ([2]; 0.375 mg dose) of the same compound?
A: Its value is 2.52.

Q: And the “Severity of Moderate … Mean Change from Baseline” value ([2]; 0.375 mg dose, Week 1)?
A: Its value is 0.00.

Q: And the “Severity of Moderate … Mean Change from Baseline” value ([2]; 0.375 mg dose, Week 2)?
A: The value was −0.10.

Q: And the “Severity of Moderate … Mean Change from Baseline” value ([2]; 0.375 mg dose, Week 3)?
A: Its value is −0.19.

Q: And the “Severity of Moderate … Mean Change from Baseline” value ([2]; 0.375 mg dose, Week 4)?
A: The value was −0.31.

Q: And the “Severity of Moderate … Mean Change from Baseline” value ([2]; 0.375 mg dose, Week 5)?
A: The value was −0.35.

Q: What about the “Severity of Moderate … Mean Change from Baseline” value ([2]; 0.375 mg dose, Week 6) of the same compound?
A: The value was −0.49.

Q: What about the “Severity of Moderate … Mean Change from Baseline” value ([2]; 0.375 mg dose, Week 7) of the same compound?
A: Its value is −0.67.

Q: What about the “Severity of Moderate … Mean Change from Baseline” value ([2]; 0.375 mg dose, Week 8) of the same compound?
A: Its value is −0.59.

Q: What about the “Severity of Moderate … Mean Change from Baseline” value ([2]; 0.375 mg dose, Week 9) of the same compound?
A: Its value is −0.77.

Q: And the “Severity of Moderate … Mean Change from Baseline” value ([2]; 0.375 mg dose, Week 10)?
A: Its value is −0.76.

Q: And the “Severity of Moderate … Mean Change from Baseline” value ([2]; 0.375 mg dose, Week 11)?
A: Its value is −0.89.

Q: And the “Severity of Moderate … Mean Change from Baseline” value ([2]; 0.375 mg dose, Week 12)?
A: The value was −0.90.
